Source: US11685739B2, “High penetration drugs and their compositions thereof for treatment of Parkinson diseases” (TECHFIELDS PHARMA CO., LTD, priority 2013, dated 2023)
Where two headings read alike, the source gives them in different places.

Experiments:
[1] = Penetration rates through human skin in vitro, modified Franz cells; conditions: through human skin (360-400 μm), receiving fluid pH 7.4 phosphate buffer (0.2 M)
[2] = human, pH 7.4
[3] = tested on: motor function deficits induced by 6-OHDA in Parkinson's disease (PD) model; assay: Rotarod test in rats with 6-OHDA lesion, Parkinson's disease (PD) model; assay type: in vivo, Sprague-Dawley rats; conditions: for Efficacy of low dose compared with moderate and high dose groups: 0.67 mg/kg transdermal (group 3) vs 2 mg and 6 mg/kg (groups 4 and 5); for Efficacy in Rotarod test comparing to vehicle group and positive control group: four-week treatment

Row | SMILES | The cumulative amount of test compounds ([2]; 1 h) | The cumulative amount of test compounds ([2]; 2 h) | The cumulative amount of test compounds ([2]; 4 h) | The cumulative amount of test compounds ([2]; 8 h) | also measured
1 | Cl.NCCc1ccc(OC(=O)c2ccccc2)c(OC(=O)c2ccccc2)c1 [Compound-10, 4-(2-aminoethyl)-1,2-phenylene dibenzoate hydrochloride] |  |  |  |  | The cumulative amount of test compounds ([1]; 1 h): 0.68 mg; The cumulative amount of test compounds ([1]; 2 h): 1.35 mg; The cumulative amount of test compounds ([1]; 4 h): 2.74 mg; The cumulative amount of test compounds ([1]; 8 h): 5.55 mg
2 | CCCN(CCC)CCOC(=O)c1cc(-c2ccc(F)cc2F)ccc1OC(C)=O.Cl [Compound-27, 2-(dipropylamino)ethyl 4-acetoxy-2′,4′-difluoro-[1,1′-biphenyl]-3-carboxylate hydrochloride] | 1.01 mg | 2.03 mg | 4.11 mg | 8.25 mg | Efficacy in Rotarod test comparing to vehicle group and positive control group ([3]; Example 36, 15 mg and 45 mg/kg transdermal): good efficacy
3 | Cl.NCCc1ccc(O)c(O)c1 [Compound-30, 4-(2-aminoethyl)benzene-1,2-diol hydrochloride] |  |  |  |  | The cumulative amount of test compounds ([1]; 1 h): 0.12 mg; The cumulative amount of test compounds ([1]; 2 h): 0.25 mg; The cumulative amount of test compounds ([1]; 4 h): 0.52 mg; The cumulative amount of test compounds ([1]; 8 h): 1.05 mg
4 | CC(C)Cc1ccc(C(C)C(=O)O)cc1 (stereo not shown) [Compound-33, 2-(ρ-isobutylphenyl)propionic acid] |  |  |  |  | The cumulative amount of test compounds ([1]; 1 h): 0.001 mg; The cumulative amount of test compounds ([1]; 2 h): 0.001 mg; The cumulative amount of test compounds ([1]; 4 h): 0.002 mg; The cumulative amount of test compounds ([1]; 8 h): 0.003 mg
5 | CC(=O)O.CCN(CC)CCOC(=O)C(C)c1ccc(CC(C)C)cc1 (stereo not shown) [Drug D, 2-(diethylamino)ethyl 2-(4-isobutylphenyl)propionate acetic acid salt] |  |  |  |  | Efficacy in Rotarod test comparing to vehicle group and positive control group ([3]; Example 33, 15 mg and 45 mg/kg transdermal): good efficacy
6 | CC(C(=O)OCCCCN(C)C)c1cccc(Oc2ccccc2)c1.Cl (stereo not shown) [Drug F, 4-(dimethylamino)butyl 2-(3-phenoxyphenyl) Propionate Hydrochloride] |  |  |  |  | Efficacy in Rotarod test comparing to vehicle group and positive control group ([3]; Example 35, 20 mg and 60 mg/kg transdermal): good efficacy
7 | C[C@@](Cc1ccc(O)c(O)c1)(NN)C(=O)O [carbidopa] |  |  |  |  | Effect on efficacy of L-Dopa and pro-drug of L-Dopa (Drug A) treated groups ([3]; Example 32, carbidopa 1.5 mg/kg orally, groups 1, 3, 4, 5, 6, 7, 9, 10, 4 weeks treatment): increased efficacy; Effect on efficacy of vehicle group and pro-drug of aspirin (Drug B) treated groups ([3]; Example 32, carbidopa 1.5 mg/kg orally, groups 2, 8 and 11, 4 weeks treatment): did not change the efficacy; Effect on efficacy of L-Dopa and pro-drug of L-Dopa treated groups ([3]; Example 34, carbidopa 1.5 mg/kg orally, groups 1, 3, 4, 5, 6, 7, 9, 10 (L-DOPA, Drug C), 4 weeks treatment): increased efficacy; Effect on efficacy of vehicle group and pro-drug of ibuprofen treated groups ([3]; Example 34, carbidopa 1.5 mg/kg orally, groups 2, 8 and 11 (Drug D), 4 weeks treatment): did not change the efficacy

Further lines, with some results ahead:

Row | The cumulative amount of test compounds ([2]; 1 h) | The cumulative amount of test compounds ([2]; 2 h) | The cumulative amount of test compounds ([2]; 4 h) | The cumulative amount of test compounds ([2]; 8 h) | SMILES | also measured
8 | 0.53 mg | 1.07 mg | 2.13 mg | 4.29 mg | CCCC(CCC)OC(=O)[C@@H](N)Cc1ccc(OC(=O)c2ccccc2)c(OC(=O)c2ccccc2)c1.Cl [Compound-12, (S)-4-(2-amino-3-(heptan-4-yloxy)-3-oxopropyl)-1,2-phenylene dibenzoate hydrochloride] | Efficacy of low dose compared with moderate and high dose groups ([3]; Example 36): much higher than that of the moderate and high dose groups
9 | 0.55 mg | 1.08 mg | 2.23 mg | 4.41 mg | Br.CCC(CC)OC(=O)[C@@H](N)Cc1ccc(OC(=O)C(C)C)c(OC(=O)C(C)C)c1 [Compound-15, (S)-4-(2-amino-3-oxo-3-(pentan-3-yloxy)propyl)-1,2-phenylene bis(2-methylpropanoate) hydrobromide] | Efficacy of low dose compared with moderate and high dose groups ([3]; Example 33): much higher than that of the moderate and high dose groups; Side effects (dyskinesia at peak dose, end-of-dose deterioration of function etc.) ([3]; Example 33, L-DOPA orally, pro-drug transdermally): avoided dyskinesia at peak dose, and end-of-dose deterioration of function
10 | 0.87 mg | 1.79 mg | 3.53 mg | 7.15 mg | CCN(CC)CCOC(=O)CC1=C(C)/C(=C/c2ccc([S+](C)[O-])cc2)c2ccc(F)cc21 (stereo not shown) [Compound-24] | 
11 | 1.15 mg | 2.31 mg | 4.58 mg | 9.22 mg | CC(C(=O)OCCN(C)C)c1cccc(Oc2ccccc2)c1.Cl (stereo not shown) [Compound-25, 2-(dimethylamino)ethyl 2-(3-phenoxyphenyl) propionate.hydrochloride] | 
12 | 1.17 mg | 2.33 mg | 4.65 mg | 9.31 mg | CC(C(=O)SCCN(C)C)c1cccc(Oc2ccccc2)c1.Cl (stereo not shown) [Compound-26] | 
13 | 1.15 mg | 2.28 mg | 4.57 mg | 9.19 mg | CCN(CC)CCOC(=O)C(C)c1ccc(CC(C)C)cc1.Cl (stereo not shown) [Compound-28, 2-(diethylamino)ethyl 2-(4-isobutylphenyl)propionate hydrochloride] | 
14 | 0.001 mg | 0.001 mg | 0.002 mg | 0.003 mg | CC(=O)Oc1ccccc1C(=O)O [Compound-32, acetylsalicylic acid, reference compound] | 
15 | 0.001 mg | 0.001 mg | 0.002 mg | 0.003 mg | CC(C(=O)O)c1cccc(Oc2ccccc2)c1 (stereo not shown) [Compound-34, 2-(3-phenoxyphenyl) propionic acid, reference compound] | 
